Experiment [1] deals with Activin receptor type-1-like (Homo sapiens) (UniProt P37023). Kind of experiment: Selectivity interaction (LanthaScreen Eu Kinase Binding Assay) EUB0001632a ACVRL1. The settings on record: at 10 µM.
Experiment [2] deals with T1, Tyrosine-protein kinase ZAP-70 (Homo sapiens) (UniProt P43403).
T1 sequence (whole entry): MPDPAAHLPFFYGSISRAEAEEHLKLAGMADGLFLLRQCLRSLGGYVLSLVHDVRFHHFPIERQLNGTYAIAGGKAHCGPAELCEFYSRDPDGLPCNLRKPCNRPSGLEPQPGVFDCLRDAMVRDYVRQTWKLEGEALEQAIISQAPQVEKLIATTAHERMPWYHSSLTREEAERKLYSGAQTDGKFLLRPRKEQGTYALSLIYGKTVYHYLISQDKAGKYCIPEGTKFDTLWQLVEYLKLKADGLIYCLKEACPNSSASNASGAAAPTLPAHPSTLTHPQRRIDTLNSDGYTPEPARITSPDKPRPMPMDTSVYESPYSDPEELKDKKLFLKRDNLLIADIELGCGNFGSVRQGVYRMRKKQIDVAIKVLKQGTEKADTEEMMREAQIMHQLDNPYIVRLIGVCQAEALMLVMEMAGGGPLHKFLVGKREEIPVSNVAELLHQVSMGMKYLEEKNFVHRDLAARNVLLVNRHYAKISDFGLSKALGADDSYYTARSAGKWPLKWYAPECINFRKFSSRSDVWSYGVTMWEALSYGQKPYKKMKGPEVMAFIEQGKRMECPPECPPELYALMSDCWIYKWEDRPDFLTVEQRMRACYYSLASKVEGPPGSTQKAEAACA
The experiment in a line: Selectivity interaction (Kinase panel (KiNativ target engagement assay in Jurkat cells)) EUB0001635a ZAP70. The experiment is classed as cell-based. The settings on record: at 1 µM.

For experiment [3], the target named is Wee1-like protein kinase 2 (Homo sapiens) (UniProt P0C1S8). The experiment in a line: Selectivity interaction (Ambit KINOMEscan and KiNATiv profiling in Jurkat cells) EUB0000090b WEE2. It counts as cell-based. As to conditions: at 1 µM.
Experiment [4] concerns the target T2, Casein kinase I isoform alpha-like (Homo sapiens) (UniProt Q8N752).
T2 sequence (whole entry): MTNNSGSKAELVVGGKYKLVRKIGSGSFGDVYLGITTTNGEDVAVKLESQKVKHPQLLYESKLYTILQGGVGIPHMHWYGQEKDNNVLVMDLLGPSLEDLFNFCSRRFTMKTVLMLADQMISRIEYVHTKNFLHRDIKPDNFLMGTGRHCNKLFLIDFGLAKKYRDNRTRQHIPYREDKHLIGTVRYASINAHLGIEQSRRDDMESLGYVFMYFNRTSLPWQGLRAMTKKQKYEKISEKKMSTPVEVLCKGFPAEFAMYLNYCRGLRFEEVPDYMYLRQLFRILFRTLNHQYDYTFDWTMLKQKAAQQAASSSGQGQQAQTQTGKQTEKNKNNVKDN
Kind of experiment: Selectivity interaction (Ambit KINOMEscan and KiNATiv profiling in Jurkat cells) EUB0000090b CSNK1A1L. The experiment is classed as cell-based. As to conditions: at 1 µM.

For experiment [5], the target named is Death-associated protein kinase 3 (Homo sapiens) (UniProt O43293). The experiment in a line: Selectivity interaction (Kinase panel (DSF assay)) EUB0001558a DAPK3. In general terms: Differential scanning fluorimetry follows unfolding on heating by fluorescence.
Sequence of Death-associated protein kinase 3 (Homo sapiens) (O43293 whole entry, looked up): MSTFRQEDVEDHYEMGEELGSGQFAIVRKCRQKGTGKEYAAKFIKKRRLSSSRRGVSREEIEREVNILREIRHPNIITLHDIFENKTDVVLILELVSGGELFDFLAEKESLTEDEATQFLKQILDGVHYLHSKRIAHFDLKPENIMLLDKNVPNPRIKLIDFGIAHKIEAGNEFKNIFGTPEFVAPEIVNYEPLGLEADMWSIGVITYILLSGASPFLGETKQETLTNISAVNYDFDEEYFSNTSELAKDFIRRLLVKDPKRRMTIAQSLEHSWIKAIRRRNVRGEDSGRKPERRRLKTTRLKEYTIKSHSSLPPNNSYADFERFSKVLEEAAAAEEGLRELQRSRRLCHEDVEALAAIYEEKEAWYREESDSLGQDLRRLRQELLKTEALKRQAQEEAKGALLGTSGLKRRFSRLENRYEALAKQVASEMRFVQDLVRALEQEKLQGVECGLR
For experiment [6], the target named is Serine/threonine-protein kinase N2 (Homo sapiens, UniProt Q16513). Kind of experiment: Selectivity interaction (KinomeScan (DiscoverX)) EUB0000229b PKN2. The settings on record: at 10 µM.
Sequence of Serine/threonine-protein kinase N2 (Q16513 whole entry, looked up): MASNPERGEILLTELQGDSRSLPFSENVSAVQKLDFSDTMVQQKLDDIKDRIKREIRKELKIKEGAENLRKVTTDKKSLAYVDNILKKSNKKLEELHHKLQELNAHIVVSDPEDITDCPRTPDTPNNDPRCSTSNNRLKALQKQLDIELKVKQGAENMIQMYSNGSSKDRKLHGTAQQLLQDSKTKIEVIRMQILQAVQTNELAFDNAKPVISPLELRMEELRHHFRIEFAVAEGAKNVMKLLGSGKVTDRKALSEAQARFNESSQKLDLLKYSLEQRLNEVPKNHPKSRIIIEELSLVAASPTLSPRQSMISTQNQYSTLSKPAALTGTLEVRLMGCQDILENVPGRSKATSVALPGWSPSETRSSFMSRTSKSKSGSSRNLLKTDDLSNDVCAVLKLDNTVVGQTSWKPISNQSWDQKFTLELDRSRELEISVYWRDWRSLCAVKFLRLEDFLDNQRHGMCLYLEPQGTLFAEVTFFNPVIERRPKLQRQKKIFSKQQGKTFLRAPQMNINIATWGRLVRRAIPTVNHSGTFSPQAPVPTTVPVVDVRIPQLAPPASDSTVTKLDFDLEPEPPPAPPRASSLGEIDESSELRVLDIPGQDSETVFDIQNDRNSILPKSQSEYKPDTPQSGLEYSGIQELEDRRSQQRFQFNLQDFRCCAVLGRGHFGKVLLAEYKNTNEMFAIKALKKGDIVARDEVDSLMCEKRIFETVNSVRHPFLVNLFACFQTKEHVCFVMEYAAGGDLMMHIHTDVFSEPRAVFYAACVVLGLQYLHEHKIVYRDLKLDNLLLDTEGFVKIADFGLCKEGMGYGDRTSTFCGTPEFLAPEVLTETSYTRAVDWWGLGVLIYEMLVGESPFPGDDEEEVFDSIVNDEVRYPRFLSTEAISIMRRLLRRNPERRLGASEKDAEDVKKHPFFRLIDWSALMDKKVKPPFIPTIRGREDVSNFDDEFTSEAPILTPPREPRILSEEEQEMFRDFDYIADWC
Experiment [7] deals with T3, Rhodopsin kinase GRK7 (Homo sapiens) (UniProt Q8WTQ7).
T3 sequence (whole entry): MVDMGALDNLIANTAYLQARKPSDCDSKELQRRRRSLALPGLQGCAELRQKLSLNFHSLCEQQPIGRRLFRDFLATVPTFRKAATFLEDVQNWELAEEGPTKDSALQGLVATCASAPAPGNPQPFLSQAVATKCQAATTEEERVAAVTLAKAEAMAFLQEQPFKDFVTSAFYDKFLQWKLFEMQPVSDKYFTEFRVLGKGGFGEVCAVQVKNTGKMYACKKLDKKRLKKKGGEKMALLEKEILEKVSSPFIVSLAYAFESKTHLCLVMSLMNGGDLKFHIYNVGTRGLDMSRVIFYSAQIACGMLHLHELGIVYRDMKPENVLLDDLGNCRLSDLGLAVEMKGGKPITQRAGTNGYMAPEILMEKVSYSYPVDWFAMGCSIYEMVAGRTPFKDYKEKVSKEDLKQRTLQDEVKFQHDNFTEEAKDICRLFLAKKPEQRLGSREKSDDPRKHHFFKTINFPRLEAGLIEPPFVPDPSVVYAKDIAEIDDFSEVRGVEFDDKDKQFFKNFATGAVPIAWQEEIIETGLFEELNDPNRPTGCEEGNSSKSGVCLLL
The experiment in a line: Selectivity interaction (KinomeScan (DiscoverX)) EUB0000229b GRK7. The settings on record: at 10 µM.

The target of experiment [8] is T4, Protein kinase C beta type (Homo sapiens, UniProt P05771). The experiment in a line: Selectivity interaction (ActivX KiNativ screen (ex vivo kinase selectivity in human PBMCs)) EUB0001619a PRKCB. It counts as cell-based. As to conditions: PBMC, at 1 µM.
T4 sequence (P05771 2-671 limits assumed): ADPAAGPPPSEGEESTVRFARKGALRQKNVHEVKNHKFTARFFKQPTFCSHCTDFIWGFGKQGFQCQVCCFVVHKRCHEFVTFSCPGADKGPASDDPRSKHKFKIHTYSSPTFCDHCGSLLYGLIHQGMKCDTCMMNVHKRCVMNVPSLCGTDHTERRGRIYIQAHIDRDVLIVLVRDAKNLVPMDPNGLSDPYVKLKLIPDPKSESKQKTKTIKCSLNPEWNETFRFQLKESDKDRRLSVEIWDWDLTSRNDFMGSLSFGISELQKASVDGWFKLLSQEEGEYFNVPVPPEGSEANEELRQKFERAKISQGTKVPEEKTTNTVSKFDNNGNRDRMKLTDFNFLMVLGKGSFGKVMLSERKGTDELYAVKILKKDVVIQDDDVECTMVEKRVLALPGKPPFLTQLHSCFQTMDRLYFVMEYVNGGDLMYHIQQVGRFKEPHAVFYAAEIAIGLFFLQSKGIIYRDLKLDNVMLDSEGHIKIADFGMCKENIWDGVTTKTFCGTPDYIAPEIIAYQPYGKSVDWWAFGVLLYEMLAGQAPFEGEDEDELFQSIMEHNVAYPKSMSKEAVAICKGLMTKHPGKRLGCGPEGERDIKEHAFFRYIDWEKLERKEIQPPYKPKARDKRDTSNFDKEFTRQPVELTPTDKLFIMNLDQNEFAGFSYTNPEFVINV
Experiment [9] addresses T4, Protein kinase C beta type. Kind of experiment: Selectivity interaction (Kinase panel (Invitrogen)) EUB0000639a PRKCB. As to conditions: at 200 nM.
The test system of experiment [10] is Proto-oncogene tyrosine-protein kinase receptor Ret (Homo sapiens), P07949 [M918T]. The settings on record: at 10 µM.
Experiment [11] concerns the target Cyclin-dependent kinase 1/cyclin B (Homo sapiens) (UniProt P06493+P14635+Q8WWL7+O95067). The experiment in a line: Selectivity interaction (Millipore kinase profiler) EUB0000124b CDK1. As to conditions: at 10 µM. The experiment is classed as protein-complex assay.
Experiment [12] deals with Non-receptor tyrosine-protein kinase TYK2 (Homo sapiens, UniProt P29597). The experiment in a line: Selectivity interaction (KinomeScan (DiscoverX)) EUB0000695a TYK2. As to conditions: at 100 nM.
Experiment [13] deals with Tyrosine-protein kinase JAK1 (Homo sapiens, UniProt P23458). The experiment in a line: Selectivity interaction (KinomeScan (DiscoverX)) EUB0000695a JAK1. The settings on record: at 100 nM.
In experiment [14] the target is Sodium- and chloride-dependent GABA transporter 1 (Homo sapiens) (UniProt P30531). The experiment in a line: Selectivity interaction (Eurofins CEREP Diversity Profile (receptors and ion channels)) EUB0000279b SLC6A1. The settings on record: at 10 µM.
Sequence of Sodium- and chloride-dependent GABA transporter 1 (Homo sapiens) (P30531 whole entry, looked up): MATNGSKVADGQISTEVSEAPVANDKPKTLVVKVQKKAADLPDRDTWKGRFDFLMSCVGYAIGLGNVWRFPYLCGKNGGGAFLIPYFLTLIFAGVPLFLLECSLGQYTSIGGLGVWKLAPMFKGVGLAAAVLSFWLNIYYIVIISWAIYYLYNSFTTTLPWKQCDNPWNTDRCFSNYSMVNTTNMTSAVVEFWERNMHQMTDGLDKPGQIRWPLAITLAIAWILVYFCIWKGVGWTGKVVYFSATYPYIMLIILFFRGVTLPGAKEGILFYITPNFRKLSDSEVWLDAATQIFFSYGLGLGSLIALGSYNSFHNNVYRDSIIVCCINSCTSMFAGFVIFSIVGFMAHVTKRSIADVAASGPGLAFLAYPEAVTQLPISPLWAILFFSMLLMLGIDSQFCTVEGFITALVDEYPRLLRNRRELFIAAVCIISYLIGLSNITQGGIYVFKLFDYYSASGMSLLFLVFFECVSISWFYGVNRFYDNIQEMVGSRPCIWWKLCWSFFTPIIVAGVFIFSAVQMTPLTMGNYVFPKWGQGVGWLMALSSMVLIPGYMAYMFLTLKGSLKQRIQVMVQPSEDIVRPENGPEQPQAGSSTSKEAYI
For experiment [15], the system named is eIF-2-alpha kinase GCN2 (Homo sapiens), Q9P2K8 [S808G]. Kind of experiment: Selectivity interaction (KinomeScan (DiscoverX)) EUB0000595a EIF2AK4. As to conditions: at 10 µM.
Sequence of eIF-2-alpha kinase GCN2 (Homo sapiens), Q9P2K8 [S808G] (Q9P2K8 whole entry S808G): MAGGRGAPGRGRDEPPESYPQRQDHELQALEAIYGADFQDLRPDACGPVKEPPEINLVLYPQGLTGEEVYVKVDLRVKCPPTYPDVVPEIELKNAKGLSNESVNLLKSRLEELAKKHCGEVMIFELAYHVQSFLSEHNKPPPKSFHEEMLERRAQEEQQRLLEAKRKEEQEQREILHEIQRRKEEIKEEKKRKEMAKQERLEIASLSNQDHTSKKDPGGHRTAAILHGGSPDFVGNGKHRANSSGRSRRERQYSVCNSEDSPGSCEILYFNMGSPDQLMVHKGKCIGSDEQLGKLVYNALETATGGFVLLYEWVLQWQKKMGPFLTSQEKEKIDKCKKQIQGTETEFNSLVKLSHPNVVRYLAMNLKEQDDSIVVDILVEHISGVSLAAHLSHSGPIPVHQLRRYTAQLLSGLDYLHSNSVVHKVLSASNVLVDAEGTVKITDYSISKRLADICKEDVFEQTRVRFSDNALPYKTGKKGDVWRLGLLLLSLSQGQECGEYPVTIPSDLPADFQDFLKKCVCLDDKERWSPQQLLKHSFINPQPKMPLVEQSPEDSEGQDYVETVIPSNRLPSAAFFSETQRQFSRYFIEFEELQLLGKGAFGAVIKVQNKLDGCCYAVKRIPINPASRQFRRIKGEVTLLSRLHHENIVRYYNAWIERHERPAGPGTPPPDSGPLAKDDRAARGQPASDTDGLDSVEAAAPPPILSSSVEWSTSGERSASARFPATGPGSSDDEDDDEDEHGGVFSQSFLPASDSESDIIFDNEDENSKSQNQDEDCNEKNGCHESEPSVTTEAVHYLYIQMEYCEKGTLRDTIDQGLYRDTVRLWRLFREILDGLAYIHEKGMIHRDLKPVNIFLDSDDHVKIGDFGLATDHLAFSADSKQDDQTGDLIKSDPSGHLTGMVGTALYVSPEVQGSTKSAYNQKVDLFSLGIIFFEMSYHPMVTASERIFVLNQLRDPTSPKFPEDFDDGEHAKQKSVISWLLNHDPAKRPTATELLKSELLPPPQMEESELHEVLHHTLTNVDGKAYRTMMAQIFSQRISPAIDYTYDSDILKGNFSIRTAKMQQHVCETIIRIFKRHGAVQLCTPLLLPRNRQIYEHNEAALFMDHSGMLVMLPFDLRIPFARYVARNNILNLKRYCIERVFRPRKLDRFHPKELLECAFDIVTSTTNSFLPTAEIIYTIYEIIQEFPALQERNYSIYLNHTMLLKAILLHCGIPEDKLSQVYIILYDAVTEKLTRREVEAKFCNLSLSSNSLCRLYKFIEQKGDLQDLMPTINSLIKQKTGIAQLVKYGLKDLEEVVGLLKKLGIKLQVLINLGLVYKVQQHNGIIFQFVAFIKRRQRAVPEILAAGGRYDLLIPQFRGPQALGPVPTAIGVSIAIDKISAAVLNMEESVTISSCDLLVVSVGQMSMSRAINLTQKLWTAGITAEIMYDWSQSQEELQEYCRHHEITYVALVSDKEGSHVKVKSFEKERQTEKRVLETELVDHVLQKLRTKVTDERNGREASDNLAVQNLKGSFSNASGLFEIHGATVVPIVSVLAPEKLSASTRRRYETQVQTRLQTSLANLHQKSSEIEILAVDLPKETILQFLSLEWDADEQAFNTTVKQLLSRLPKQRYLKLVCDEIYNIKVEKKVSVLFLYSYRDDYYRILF

Sequence of Activin receptor type-1-like (Homo sapiens) (P37023 whole entry): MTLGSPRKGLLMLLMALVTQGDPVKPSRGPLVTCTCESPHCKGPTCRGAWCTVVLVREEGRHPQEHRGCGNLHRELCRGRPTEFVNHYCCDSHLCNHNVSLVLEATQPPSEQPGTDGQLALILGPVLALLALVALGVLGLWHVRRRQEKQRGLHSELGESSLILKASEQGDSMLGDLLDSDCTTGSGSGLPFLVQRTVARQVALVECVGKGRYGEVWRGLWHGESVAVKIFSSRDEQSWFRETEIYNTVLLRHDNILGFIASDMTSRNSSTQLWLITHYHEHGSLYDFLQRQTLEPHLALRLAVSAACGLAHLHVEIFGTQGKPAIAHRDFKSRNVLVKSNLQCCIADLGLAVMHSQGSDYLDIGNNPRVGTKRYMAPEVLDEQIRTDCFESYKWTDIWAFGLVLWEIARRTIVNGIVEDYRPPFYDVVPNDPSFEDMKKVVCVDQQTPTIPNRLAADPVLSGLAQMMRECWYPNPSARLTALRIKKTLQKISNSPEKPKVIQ

In the case of `Cn1cc(-n2cnc3c(NCc4nc5cc(Cl)c(Cl)cc5[nH]4)nc(N4CCOCC4)nc32)cn1`, in experiment [1], the % of inhibition is -13%.

As for `C=CC(=O)Nc1ccc(C(=O)Nc2[nH]nc3c2CN(C(=O)N[C@H](CN(C)C)c2ccccc2)C3(C)C)cc1`, the % of engagement in experiment [2] (Selectivity number of off-targets 0.0, Selectivity number of targets 233.0, Source Knowledge https://www.sciencedirect.com/science/article/pii/S2451945619300674?via%3Dihub) is -13.8%; in experiment [2], -8.5%.

For `CN(C)C/C=C/C(=O)Nc1ccc(C(=O)N2CCCC(Nc3ncc(Cl)c(-c4c[nH]c5ccccc45)n3)C2)cc1` (stereo unspecified), the figures for the % of control in experiment [3] and in experiment [4] were 97% and 65%, respectively.

In turn, `CC(C)(O)[C@H](F)CN1Cc2cc(NC(=O)c3cnn4cccnc34)c(N3CCOCC3)cc2C1=O` gave a dTM in [5] of 1.8 K.

For the compound `COc1cc(N(C)c2ccnc3ccc(C(F)(F)F)cc23)cc(OC)c1OC`, the % binding in experiment [6] was 84%; in experiment [7], 69%.

Consider `N#Cc1cccc(-c2c[nH]c3ncnc(N4CCOCC4)c23)c1`, for which, in [8], the % of inhibition amounted to 57%.

Regarding `CC[C@@H]1[C@H](F)C(=O)N[C@@H]1COc1nccc2cc(C(N)=O)c(OC)cc12` [ZIMLOVISERTIB], the % of inhibition in experiment [9] worked out at 6.06%.

Regarding `CCN(CC)CCCCNc1ncc2cc(-c3cc(OC)cc(OC)c3)c(NC(=O)NC(C)(C)C)nc2n1`, the % of control in experiment [10] came out at 100%.

Compound `CC(=O)Nc1cccc(-n2c(=O)n(C3CC3)c(=O)c3c(Nc4ccc(I)cc4F)n(C)c(=O)c(C)c32)c1` yielded a % of control in experiment [11] of 104%.

Consider `Cc1cc(F)c(C(=O)Nc2cccc(-c3nncn3C(C)C)n2)cc1-n1cnc(C2CC2)c1`, for which the values for the % of control in experiment [12] and in experiment [13] were 73% and 60%, respectively.

As for `CC(=O)c1cc(-c2ccccc2OCC2CC2)c2ncccn12`, the % of control in [14] is 107%.

Regarding `COCC(=O)NC/C=C/c1ccc2ncnc(Nc3ccc(Oc4ccc(C)nc4)c(C)c3)c2c1` [CP-724714], the % of control in experiment [15] came out at 81%.
